Measured values as given in patent US20100112561A1, “FLUORESCENT NUCLEOSIDE ANALOGUES” (priority 2006, published 2010).

Experiments:
[1] = biological target: T1, thymidine kinase from Thermotoga maritima (TmTK) (Thermotoga maritima, UniProt Q9WYN2); experiment: kinetic experiments with type-II kinases; type: biochemical
T1 construct: made in house; host or cells: E. coli, pET-14b (Novagen)
Source text: (§1) To investigate the kinetic properties of the above-described fNAs in vitro, a pET-based protein overexpression system was established for the production and purification of milligram quantities of individual dNKs. The genes for human 2′-deoxycytidine kinase (dCK) and fruitfly dNK (DmdNK), as well as the thymidine kinase from the bacterium Thermotoga maritime (TmTK) were subcloned into pET-14b (Novagen), an IPTG-inducible protein overexpression system that also introduces a poly-His tag at the target protein's amino terminus. […]
(§2) Experimentally, the kinase-catalyzed phosphotransfer reaction was monitored at 37° C. via a spectrophotometric, couple-enzyme assay (as described in Munch-Petersen, B., Knecht, W., Lenz, C., Sondergaard, L. and Piskur, J. (2000) functional expression of a multisubstrate deoxyribonucleoside kinase from Drosophila melanogaster and its C-terminal deletion mutants. J Bio chem, 275, 6673-6679; Schelling, P., Folkers, G. and Schapozza, L. (2001) A spectrophotometric assay for quantitative determination of kcat of herpes simplex virus type 1 thymidine kinase substrates. Anal Biochem, 295, 82-87, which are hereby incorporated by reference herein). […] The consumption of NADH can be monitored spectrophotometrically at 340 nm. […]

[2] = tested on: E. coli TOP10 and E. coli KY895; experiment: fNA uptake by fluorescence microscopy, strains without exogenous kinase; type: cell-based; details: both strains, no exogenous type-I kinase
Experimental: To validate the accumulation of the fluorescent nucleotides inside bacterial cells, a series of fNA-uptake experiments was conducted in two E. coli strains. The E. coli TOP10 (Invitrogen) carries a native type-II thymidine kinase while E. coli KY895 is a thymidine kinase-deficient laboratory strain.

[3] = tested on: E. coli KY895 with pDIM-tDmdNK and TOP10 with pBAD-tDmdNK; experiment: fNA accumulation by fluorescence microscopy, bacteria expressing DmdNK; type: cell-based; details: plasmid-encoded exogenous DmdNK, both strains, FIG. 8
Source text: FIG. 8 illustrates the fluorescence microscopy of E. coli KY895 with pDIM-tDmdNK (left) and TOP10 with pBAD-tDmdNK (right) in the presence of 1 (100× magnification; excitation: Hg-lamp at 325 nm). Noticeable in the two images of FIG. 8 is the highly variable fluorescence intensity in the E. coli KY895/pDIM sample, caused by disproportionate expression levels of the lac-promoter system. On the contrary, the arabinose-controlled pBAD system in E. coli TOP10 facilitates steadier kinase expression levels, resulting in a more uniform fluorescence signal.

[4] = biological target: T2, 2′-deoxyribonucleoside kinase from Drosophila melanogaster (DmdNK) (Drosophila melanogaster, UniProt Q9XZT6); experiment: spectrophotometric coupled-enzyme kinase assay, DmdNK; type: biochemical; details: wild type DmdNK, kcat/KM data FIG. 10A/11A, agrees with FACS FIG. 11B
T2 construct: made in house; host or cells: E. coli, pET-14b (Novagen)
T2 sequence (Q9XZT6 1-250): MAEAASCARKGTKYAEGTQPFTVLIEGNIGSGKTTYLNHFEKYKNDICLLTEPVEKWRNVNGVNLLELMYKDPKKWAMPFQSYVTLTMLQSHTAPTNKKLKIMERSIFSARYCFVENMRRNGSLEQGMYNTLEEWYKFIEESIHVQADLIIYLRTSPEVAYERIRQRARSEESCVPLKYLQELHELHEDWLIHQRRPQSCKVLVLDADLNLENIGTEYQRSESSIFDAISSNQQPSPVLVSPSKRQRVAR
Source text: To investigate the kinetic properties of the above-described fNAs in vitro, a pET-based protein overexpression system was established for the production and purification of milligram quantities of individual dNKs. The genes for human 2′-deoxycytidine kinase (dCK) and fruitfly dNK (DmdNK), as well as the thymidine kinase from the bacterium Thermotoga maritime (TmTK) were subcloned into pET-14b (Novagen), an IPTG-inducible protein overexpression system that also introduces a poly-His tag at the target protein's amino terminus. Following protein overexpression, the tag enables one-step purification of the corresponding proteins on Ni-affinity resin, yielding enzyme of >95% purity as determined by SDS-PAGE. This protein overexpression system was successfully applied for the listed wild type kinases above, as well as for isolating engineered enzymes.
A quantitative measurement of individual enzymes' substrate specificity is possible via the determination of the kinetic parameters KM and kcat. Consistent with the literature, each kinase will be described by its relative activity for a fNA in comparison to its corresponding NA and thymidine: kcat(fNA)/kcat(NA), as well as by its relative catalytic efficiency: kcat/KM(fNA)/kcat/KM(NA). […]
as §2

[5] = biological target: T3, human 2′-deoxycytidine kinase (dCK) (Homo sapiens, UniProt P27707); experiment: spectrophotometric coupled-enzyme kinase assay, dCK; type: biochemical; details: FIG. 10A
T3 construct: made in house; host or cells: E. coli, pET-14b (Novagen)
T3 sequence (P27707 whole entry): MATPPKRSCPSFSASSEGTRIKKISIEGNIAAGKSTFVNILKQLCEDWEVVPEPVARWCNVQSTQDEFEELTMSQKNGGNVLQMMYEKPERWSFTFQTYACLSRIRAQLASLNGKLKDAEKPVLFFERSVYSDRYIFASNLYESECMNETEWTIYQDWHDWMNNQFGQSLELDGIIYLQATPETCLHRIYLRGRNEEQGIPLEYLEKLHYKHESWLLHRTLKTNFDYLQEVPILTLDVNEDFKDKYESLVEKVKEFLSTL
Source text: as §1
A quantitative measurement of individual enzymes' substrate specificity is possible via the determination of the kinetic parameters KM and kcat. […]
as §2

[6] = tested on: E. coli expressing DmdNK from pDIM, pBAD or pET vectors; experiment: flow cytometry (FACS) of E. coli overexpressing DmdNK; type: cell-based; details: pDIM vector in E. coli KY895, FIG. 9
Experimental: In a typical flow cytometry experiment, bacterial cultures are grown to mid-log phase and protein expression is induced for 4 h, followed by the addition of the fN or fNA to the culture broth. Cells are incubated for another 2 h prior to centrifugation and three wash-cycles with PBS buffer to reduce the fluorescence background. Cultures are then analyzed on a Becton Dickinson FACSVantage SE, equipped with a UV laser.
Several experiments were conducted to validate the design for a FACS-based high-throughput screening system for engineered dNKs. A first set of experiments addressed three main questions: a) what is an appropriate host/expression system for kinases in conjunction with fNAs (FIG. 9), b) are the fluorescent properties of the above-described fNAs sufficient for FACS, and c) what is the dynamic range of this screening system? […] In contrast, both the pET and pBAD system yield populations with a more significant portion of “positives”, cells with 10 to 20-fold higher fluorescence than background.

T1 sequence (Q9WYN2 whole entry): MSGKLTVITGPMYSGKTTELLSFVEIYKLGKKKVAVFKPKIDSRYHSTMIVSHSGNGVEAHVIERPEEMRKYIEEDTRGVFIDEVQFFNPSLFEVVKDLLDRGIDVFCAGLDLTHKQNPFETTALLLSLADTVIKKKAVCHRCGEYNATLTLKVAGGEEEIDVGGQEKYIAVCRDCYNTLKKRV

| Compound | phosphorylation by type-II kinases [1] | fluorescence signal in cells [2] | accumulation of fluorescent probe inside cells [3] | substrate activity / phosphorylation by DmdNK [4] | substrate activity / phosphorylation by dCK [5] | fluorescent cell population [6] |
| --- | --- | --- | --- | --- | --- | --- |
| Cc1cc2cn([C@H]3C[C@H](O)[C@@H](CO)O3)c(=O)nc2o1 [compound 1, 6-methyl-3-(β-D-2′-deoxyribofuranosyl)furano-[2,3-d]pyrimidin-2-one] | no detectable phosphorylation | no fluorescence signal beyond the cellular autofluorescence | accumulation of the fluorescent probe inside both strains | strong activity and good substrate and good | no activity | small subpopulation with fluorescence above background |
| Cc1cc2cn(C3CCC(CO)O3)c(=O)nc2[nH]1 (centres unmarked) [compound 25, 3-(5-(hydroxymethyl)-tetrahydrofuran-2-yl)-6-methyl-3H-pyrrolo[2,3-d]pyrimidin-2(7H)-one] | – | – | – | no detectable activity | – | – |
| Cc1cc2cn(C3CC(N=[N+]=[N-])C(CO)O3)c(=O)nc2o1 (centres unmarked) [compound 16, 3-(4-azido-5-(hydroxymethyl)-tetrahydrofuran-2-yl)-6-methylfuro[2,3-d]pyrimidin-2(3H)-one] | – | – | – | only background phosphorylation | – | – |
